# Test results reported in PMC12254266, “Multicolored sequential resonance energy transfer for detection of simultaneous ligand binding at G protein-coupled receptors” (Nature Communications, 2025).
# Several values for one entry are separate records, joined by “and”; a condition that tells them apart may be missing. Identical values can stand only once.
# Experiments:
# FFA1-Nluc = FFA1-Nluc (Homo sapiens, UniProt O14842); experiment: DISCo-BRET (endpoint, spectra scan, kinetics) with TUG-2591 and TUG-2597 at C terminal Nluc tagged FFA1; format: binding; design: expressed in transfected cells; conditions: for Specific BRET (540/450), % of control: Figure 4Bi, single replicate values (technical duplicate); for Specific BRET (690/540), % of control: technical duplicate
# FFA1-Nluc, sequence (O14842 whole entry): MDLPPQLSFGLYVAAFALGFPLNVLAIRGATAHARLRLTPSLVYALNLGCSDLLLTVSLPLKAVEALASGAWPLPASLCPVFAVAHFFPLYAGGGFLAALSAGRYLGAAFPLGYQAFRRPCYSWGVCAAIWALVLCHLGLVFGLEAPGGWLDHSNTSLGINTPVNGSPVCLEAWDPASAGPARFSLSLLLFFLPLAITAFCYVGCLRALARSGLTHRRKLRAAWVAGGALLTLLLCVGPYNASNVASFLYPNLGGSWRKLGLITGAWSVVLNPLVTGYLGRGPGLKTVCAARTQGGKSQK
# Experimental: Nluc-FFA1 or FFA1-Nluc Flp-In T-REx 293 cells were plated at 50,000 cells per well in poly-D-lysine coated white 96-well plates. Cells were cultured for 24 h in the plate before medium was replaced with medium containing 100 ng/mL of doxycycline to induce receptor expression. After culturing for a further 24 h, culture medium was removed, cells washed with HBSS and incubated in HBSS for 30 min. For all DISCo-BRET formats Nano-Glo substrate was then added at a 1:800 final dilution and cells incubated for 10 min. Following substrate addition experimental set up different among the three formats: endpoint, spectra scan, and kinetics.
# For endpoint experiments all fluorescent and unlabelled ligands were added to the cells and incubated for 5 min at 37 °C. Luminescent emission was then measured using a CLARIOstar microplate reader with monochromator set at 450–60 nm (Nluc), 540−60 nm (NBD) and 690–100 nm (SulfoCy5). BRET ratios were then calculated as either SulfoCy5 emission divided by NBD emission, SulfoCy5 emission divided by Nluc emission, or NBD emission divided by Nluc emission.
# For spectra scan experiments all indicated fluorescent and unlabelled ligands were added to the cells and cells incubated for 5 min at 37 °C. Luminescence emissions were then measured from each well of the plate from 440 nm – 740 nm with a 5 nm resolution using a CLARIOstar microplate. Luminescent emission spectra were then normalised as a percentage of the maximal Nluc emission peak ( ~ 460 nm), then subtracted with the spectrum obtained in the presence of high concentrations of ligands competing for both binding sites to obtain specific BRET binding spectra.
# In kinetic DISCo-BRET experiments plates were placed directly in a CLARIOstar plate reader set to 25 °C 10 min after Nano-Glo substrate addition. Luminescent measurements were then taken with three sequential measurements per well with the monochromator set to 450–60 nm (Nluc), 540 - 60 nm (NBD) and 690–100 nm (SulfoCy5) taken in 20 or 30 s intervals. After 5 min of background measurements, the plate reader was paused for the first indicated fluorescent ligand(s) addition, before immediately returning the plate to the reader to continue luminescence readings. After 5 min, the reader was again paused to add the second fluorescent ligand (association assays) or competing ligand(s) (dissociation assays), before immediately continuing the measurements for the indicated time. Non-specific control binding was obtained by adding the indicated competing ligand(s) 5 min prior to the addition of the first fluorescent ligand.
# Nluc-FFA1 = biological target: T1, Nluc-FFA1 (Homo sapiens, UniProt O14842); experiment: NanoBRET binding (saturation, competition, kinetics) at N terminal Nluc tagged FFA1; conditions: technical duplicates; for Specific BRET (690/450)%: Figure 4Ci; for Specific BRET (540/450)%: Figure 4Cii
# T1 construct: expressed in transfected cells
# T1 sequence (O14842 whole entry): as above
# Experimental: Nluc-FFA1 or FFA1-Nluc Flp-In T-REx 293 cells were plated at 50,000 cells per well in poly-D-lysine coated white 96-well plates. Cells were cultured for 24 h in the plate before medium was replaced with medium containing 100 ng/mL of doxycycline to induce receptor expression. After culturing for a further 24 h, medium was removed, cells were washed with HBSS and incubated in HBSS for 30 min. To start the assay, NanoGlo substrate (Promega, N1110) was added to the cells at a 1:800 final dilution and incubated for 10 min at 37 °C. For endpoint assays, including both saturation and competition binding, test ligands were then added, including both fluorescent and unlabelled competing ligands as indicated, and plates incubated for a further 5 min at 37 °C. NanoBRET was then quantified in a CLARIOstar microplate reader (BMG Labtech) by measuring luminescent emission with the monochrometer set for the Nluc donor at 450–60 nm, and acceptor luminescent emission 540–60 nm (NBD), 600–80 nm (Cy3.5) or 690–100 nm (SulfoCy5), depending on which fluorophore was being tested. The acceptor/donor BRET ratio was then taken as a measure of fluorophore binding. For kinetic on then off NanoBRET experiments plates were washed the same way and substrate was added to the same concentration. However, 10 min after substrate was added plates were inserted into the CLARIOstar microplate reader set to 25 °C to take repeated measurements of luminescent emission for both the donor and the acceptor fluorophore being used. After 5 min of background measurements, the indicated concentration of fluorescent ligand was added using the plate reader injector and luminescent emission was monitored for ~10 min before the reader was paused to manually add a high concentration of appropriate competing ligand to initiate dissociation. The plate was returned to the reader and luminescence measurements were continued for a further 30 min to monitor dissociation of the fluorescent ligand. For kinetic experiments using multiple concentrations of fluorescent ligand, cells were placed in the plate reader immediately after the addition of Nano-Glo substrate and luminescent measurements were taken. After 5 min, the reader was paused to add the indicated concentrations of fluorescent ligand, before measurements were continued. To set non-specific binding for kinetic experiments, the indicated competing ligand was added 5 min before the addition of the fluorescent ligand.
smiles,measurement,setting,value
Cc1cc(OCCCS(C)(=O)=O)cc(C)c1-c1cccc(COc2ccc3c(c2)OC[C@H]3CC(=O)O)c1 [TAK-875],"Specific BRET (540/450), % of control",FFA1-Nluc; log[Ligand] -6,467.51 % of control and 353.62 % of control and 390.67 % of control and 390.47 % of control and 245.96 % of control and 264.46 % of control and 322.48 % of control and 320.38 % of control
same,"Specific BRET (540/450), % of control",FFA1-Nluc; log[Ligand] -6.5,416.30 % of control and 439.27 % of control and 347.06 % of control and 353.35 % of control and 259.50 % of control and 260.52 % of control and 247.59 % of control and 261.94 % of control
same,"Specific BRET (540/450), % of control",FFA1-Nluc; log[Ligand] -7,359.13 % of control and 319.17 % of control and 300.41 % of control and 327.99 % of control and 232.12 % of control and 230.66 % of control and 238.32 % of control (2×)
same,"Specific BRET (540/450), % of control",FFA1-Nluc; log[Ligand] -7.5,230.54 % of control and 249.60 % of control and 216.23 % of control and 242.80 % of control and 172.25 % of control and 154.77 % of control and 142.78 % of control and 178.30 % of control
same,"Specific BRET (540/450), % of control",FFA1-Nluc; log[Ligand] -8,168.77 % of control and 177.73 % of control and 170.59 % of control and 182.76 % of control and 139.62 % of control and 128.26 % of control and 117.24 % of control and 129.48 % of control
same,"Specific BRET (540/450), % of control",FFA1-Nluc; log[Ligand] -9,109.76 % of control and 130.42 % of control and 118.05 % of control and 144.22 % of control and 109.32 % of control and 101.46 % of control and 92.91 % of control and 104.81 % of control
same,"Specific BRET (690/540), % of control",FFA1-Nluc; log[Ligand] -9,98.23 % of control
same,"Specific BRET (540/450), % of control",FFA1-Nluc; log[Ligand] -10,110.45 % of control and 140.76 % of control and 99.39 % of control and 126.77 % of control and 105.68 % of control and 97.52 % of control and 91.86 % of control and 108.31 % of control
same,"Specific BRET (690/540), % of control",FFA1-Nluc; log[ligand] -8,82.90 % of control
same,"'bottom' of the IC50 curve, DISCo-BRET NBD/Nluc",FFA1-Nluc; percentage of binding obtained in the absence of competing ligand,360%
same,"'bottom' of the IC50 curve, DISCo-BRET SulfoCy5/NBD","FFA1-Nluc; percentage of binding obtained in the absence of competing ligand, 100 nM TUG-2591 and […] TUG-2597",-3.0%
same,Specific BRET (690/450)%,Nluc-FFA1; log[Ligand] -6,10.18% and 12.73% and 3.99% and 7.92% and 4.81% and 6.50%
same,Specific BRET (690/450)%,Nluc-FFA1; log[Ligand] -6.5,32.21% and 35.14% and 21.21% and 27.75% and 22.79% and 22.32%
same,Specific BRET (690/450)%,Nluc-FFA1; log[Ligand] -7,65.25% and 65.98% and 70.04% and 73.07% and 59.65% and 56.69%
same,Specific BRET (690/450)%,Nluc-FFA1; log[Ligand] -7.5,85.12% and 83.85% and 95.80% and 94.83% and 87.89% and 88.68%
same,Specific BRET (690/450)%,Nluc-FFA1; log[Ligand] -8,89.18% and 88.01% and 105.30% and 110.61% and 94.39% and 90.53%
same,Specific BRET (690/450)%,Nluc-FFA1; log[Ligand] -9,97.11% and 97.99% and 104.48% and 114.53% and 100.63% and 97.67%
same,Specific BRET (690/450)%,Nluc-FFA1; log[Ligand] -10,87.86% and 92.46% and 110.54% and 109.16% and 102.75% and 97.62%
same,Specific BRET (690/450)%,Nluc-FFA1; log[Ligand] -11,100.29% and 99.71% and 99.72% and 100.28% and 98.52% and 101.48%
same,Specific BRET (540/450)%,Nluc-FFA1; log[Ligand] -9,172.87% and 190.47% and 142.88% and 120.34% and 106.26% and 112.65% and 111.64% and 106.85%
same,Specific BRET (540/450)%,Nluc-FFA1; log[Ligand] -10,149.59% and 142.25% and 115.93% and 128.15% and 104.61% and 106.65% and 101.74% and 108.27%
same,Specific BRET (540/450)%,Nluc-FFA1; log[Ligand] -11,103.21% and 96.79% and 95.91% and 104.09% and 99.52% and 100.48% and 105.48% and 94.52%
